Data taken from paper PMC8797470, “Disruption of the pentraxin 3/CD44 interaction as an efficient therapy for triple‐negative breast cancers” (Clinical and Translational Medicine, 2022).
Ends that are not written are not given here.

Key:
[1] = tested on: AKT, NF-κB and ERK1/2 activity in MDA-MB-231 cells; experiment: Western blot of PTX3-induced signalling; assay type: cell-based, human; conditions: with PTX3 treatment
From the text: Experimental cells were lysed with radioimmunoprecipitation assay buffer (RIPA) buffer. Specific antibodies including PTX3 (ab90806; Abcam), CEBPD (sc‐636; Santa Cruz Biotechnology), CD44 (GTX83114; GeneTex), α‐tubulin (T6199; Sigma), P84 (GTX70220; GeneTex), RAC1 (GTX100761; GeneTex), CDC42 (GTX100904; GeneTex), AKT (GTX121937; GeneTex), Phospho‐AKT (Ser473) (GTX128414; GeneTex), Phospho‐NF‐κB p65 (Ser536) (#93H1; Cell Signaling), RhoA (ab68826; Abcam), NF‐κB p65 (#3033; Cell Signaling), Phospho‐p38 MAPK (Thr180/Tyr182) (#9211; Cell Signaling), PTEN (ab32199; Abcam), p38 MAPK (#9212; Cell Signaling), Phospho‐SAPK/JNK (Thr183/Tyr185) (#4668; Cell Signaling), Phospho‐p70 S6 Kinase (Thr389) (MABS82; Millipore), Phospho‐PAK1 (Ser199/Ser204) (09‐258; Millipore), SAPK/JNK (#9252; Cell Signaling), Phospho‐p44/42 MAPK (ERK1/2) (Thr202/Tyr204) (#4377; Cell Signaling) and p44/42 MAPK (ERK1/2) (#9102; Cell Signaling) were used for Western blotting.

[2] = tested on: MDA-MB-231 cells; experiment: Transwell migration and Matrigel invasion assays; assay type: cell-based, human; conditions: with PTX3 treatment, 18 h
From the text: In migration assay, MDA‐MB‐231 cells seeded in 8.0 μm pore polycarbonate membrane inserts (BD Biosciences) in 24‐well plates. In Matrigel invasion assay, inserts were pre‐coated with an appropriate amount of Matrigel first, and the same number of cells seeded on the Matrigel. After cells adhered on the inserts, serum‐free DMEM medium added in the upper wells. Serum‐free medium containing the treatments of TGF‐β1, PTX3, PTX3NA, PTX3/N, PTX3/C, RI37, GI40, AD9, GR9, IgG1κ, PTX3 Ab‐10 or PTX3 Ab‐49 were then mixed into the lower wells of the 24‐well plates. After incubating for 18 h, cells outside the insert were removed by wiping. The inside the inserts were then stained by 4′,6‐diamidino‐2‐phenylindol (DAPI). Fluorescence microscope was used for counting the total number of migrated cells with 200× magnification. Different from the experimental design for the MDA‐MB‐231 cells, the migrated 4T1‐Luc2 cells in the inside of the insert were detected by luciferase activity.

## GI40: peptide, PTX3 amino acids 320–359 (GGGFDETLAFSGRLTGFNIWDSVLSNEEIRETGGAESCHI; also: biotin, position not given here)
[1]
  PTX3-induced AKT, NF-κB and ERK1/2 activity (signalling pathways): suppressed
[2]
  PTX3-induced migration and invasion: suppressed

## RI37: peptide, PTX3 amino acids 200–236 (RPMRLESFSACIWVKATDVLNKTILFSYGTKRNPYEI; also: biotin, position not given here)
[1]
  PTX3-induced AKT, NF-κB and ERK1/2 activity (signalling pathways): suppressed
[2]
  PTX3-induced migration and invasion: suppressed
